# Measured values as given in ChEMBL document CHEMBL5096205, “Lysine Covalent Antagonists of Melanoma Inhibitors of Apoptosis Protein” (J Med Chem, 2021).
# How the values were obtained:
# [1] = biological target: E3 ubiquitin-protein ligase XIAP (Homo sapiens, UniProt P98170); assay: Antagonist activity at N-terminal His-tagged XIAP-BIR3 domain (253 to 347 residues)(unknown origin) expressed in Escherichia coli BL21 using AVPIAQKSEK-biotinylated peptide as substrate incubated for 2 hrs by DELFIA assay
# [2] = biological target: Baculoviral IAP repeat-containing protein 3 (Homo sapiens, UniProt Q13489); assay: Antagonist activity at N-terminal His-tagged cIAP2-BIR3 domain (unknown origin) expressed in Escherichia coli BL21 using AVPIAQKSEK-biotinylated peptide as substrate incubated for 2 hrs by DELFIA assay
# [3] = biological target: T1, Baculoviral IAP repeat-containing protein 7 (Homo sapiens, UniProt Q96CA5); assay: Antagonist activity at N-terminal His-tagged wild type ML-IAP BIR domain (63 to 179 residues) (unknown origin) expressed in Escherichia coli BL21 using AVPIAQKSEK-biotinylated peptide as substrate incubated for 2 hrs by DELFIA assay
# T1 sequence (Q96CA5 whole entry): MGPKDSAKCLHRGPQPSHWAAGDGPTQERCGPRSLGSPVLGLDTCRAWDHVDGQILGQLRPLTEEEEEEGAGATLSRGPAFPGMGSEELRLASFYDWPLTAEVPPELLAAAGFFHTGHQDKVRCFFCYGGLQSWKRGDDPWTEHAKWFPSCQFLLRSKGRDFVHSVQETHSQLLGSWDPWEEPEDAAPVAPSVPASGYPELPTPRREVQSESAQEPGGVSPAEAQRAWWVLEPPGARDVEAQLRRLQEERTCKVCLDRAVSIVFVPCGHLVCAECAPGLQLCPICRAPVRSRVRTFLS
# [4] = biological target: T1, Baculoviral IAP repeat-containing protein 7; assay: Antagonist activity at N-terminal His-tagged wild type ML-IAP BIR domain (63 to 179 residues)(unknown origin) expressed in Escherichia coli BL21 using AVPIAQKSEK-biotinylated peptide as substrate preincubated for 2 hrs with protein followed by substrate addition measured after 2 hrs by DELFIA assay
# SK-MEL-28 [5] = assay: Induction of apoptosis in human SK-MEL-28 cells assessed as increase in caspase-3/7 activity at 0.1 to 10 uM in presence of 0.1 ng/mL TNFlpha by IncuCyteS3 caspase-3/7 fluorescence-based apoptosis assay; type: functional, cell-based; details: dose 0.1-10 µM, time <= 48.0 hrs, TDE = time-dependent effect
# Homo sapiens = organism: Homo sapiens; assay: Binding affinity to N-terminal His-tagged ML-IAP K135A mutant (63 to 179 residues) (unknown origin) expressed in Escherichia coli BL21 assessed as change in melting temperature at 20 uM incubated for 2 hrs followed by heating at 40 to 70 degree C for 30 mins by SYPRO orange dye based thermal shift assay; details: time 150.0 min
# [6] = biological target: T2, Baculoviral IAP repeat-containing protein 7 (Homo sapiens) (UniProt Q96CA5); details: dose 20.0 µM, time 150.0 min
# T2 sequence (whole entry): T1 sequence (Q96CA5 whole entry)
# SK-MEL-28 [7] = assay: Induction of apoptosis in human SK-MEL-28 cells assessed as increase in caspase-3/7 activity measured up to 48 hrs in presence of 0.1 ng/mL TNFlpha by IncuCyteS3 caspase-3/7 fluorescence-based apoptosis assay; type: functional, cell-based; details: dose 0.1-10 µM, DDE = dose-dependent effect
# [8] = biological target: Baculoviral IAP repeat-containing protein 2 (Homo sapiens, UniProt Q13490); assay: Antagonist activity at N-terminal His-tagged cIAP1-BIR3 domain (unknown origin) expressed in Escherichia coli BL21 using AVPIAQKSEK-biotinylated peptide as substrate incubated for 2 hrs by DELFIA assay
# Baculoviral IAP repeat-containing protein 2, sequence (Q13490 whole entry, the tested form may be a part): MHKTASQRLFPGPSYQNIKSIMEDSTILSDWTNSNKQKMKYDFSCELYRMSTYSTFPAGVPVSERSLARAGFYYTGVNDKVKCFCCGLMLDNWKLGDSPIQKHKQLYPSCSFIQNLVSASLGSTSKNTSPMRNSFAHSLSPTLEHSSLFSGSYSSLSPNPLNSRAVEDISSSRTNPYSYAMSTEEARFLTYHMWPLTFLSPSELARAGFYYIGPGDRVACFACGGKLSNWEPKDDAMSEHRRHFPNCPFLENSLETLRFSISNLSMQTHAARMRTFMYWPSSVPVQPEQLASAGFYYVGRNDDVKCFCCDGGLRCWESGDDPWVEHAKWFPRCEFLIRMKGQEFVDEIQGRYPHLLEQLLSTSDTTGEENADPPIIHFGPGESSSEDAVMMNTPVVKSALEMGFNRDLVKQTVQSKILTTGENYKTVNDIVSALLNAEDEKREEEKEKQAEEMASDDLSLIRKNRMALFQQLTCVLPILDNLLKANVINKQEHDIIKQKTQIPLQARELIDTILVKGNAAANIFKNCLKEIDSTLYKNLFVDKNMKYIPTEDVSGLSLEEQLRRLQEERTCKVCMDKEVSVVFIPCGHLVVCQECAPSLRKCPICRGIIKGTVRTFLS
# E3 ubiquitin-protein ligase XIAP, sequence (P98170 whole entry, the tested form may be a part): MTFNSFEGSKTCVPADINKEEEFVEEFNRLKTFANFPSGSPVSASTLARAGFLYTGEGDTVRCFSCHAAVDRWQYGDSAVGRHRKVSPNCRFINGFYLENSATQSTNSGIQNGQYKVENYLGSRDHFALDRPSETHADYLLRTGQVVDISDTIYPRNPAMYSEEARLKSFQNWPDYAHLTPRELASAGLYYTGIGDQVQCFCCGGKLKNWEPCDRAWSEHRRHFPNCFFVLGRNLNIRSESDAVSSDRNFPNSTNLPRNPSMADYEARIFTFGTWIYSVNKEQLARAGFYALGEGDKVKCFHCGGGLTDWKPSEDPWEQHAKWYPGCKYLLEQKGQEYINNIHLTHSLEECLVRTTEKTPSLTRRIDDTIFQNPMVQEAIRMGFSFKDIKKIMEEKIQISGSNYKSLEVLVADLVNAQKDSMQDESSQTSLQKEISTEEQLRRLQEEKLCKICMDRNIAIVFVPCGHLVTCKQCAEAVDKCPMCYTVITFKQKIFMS
# Baculoviral IAP repeat-containing protein 3, sequence (Q13489 whole entry, the tested form may be a part): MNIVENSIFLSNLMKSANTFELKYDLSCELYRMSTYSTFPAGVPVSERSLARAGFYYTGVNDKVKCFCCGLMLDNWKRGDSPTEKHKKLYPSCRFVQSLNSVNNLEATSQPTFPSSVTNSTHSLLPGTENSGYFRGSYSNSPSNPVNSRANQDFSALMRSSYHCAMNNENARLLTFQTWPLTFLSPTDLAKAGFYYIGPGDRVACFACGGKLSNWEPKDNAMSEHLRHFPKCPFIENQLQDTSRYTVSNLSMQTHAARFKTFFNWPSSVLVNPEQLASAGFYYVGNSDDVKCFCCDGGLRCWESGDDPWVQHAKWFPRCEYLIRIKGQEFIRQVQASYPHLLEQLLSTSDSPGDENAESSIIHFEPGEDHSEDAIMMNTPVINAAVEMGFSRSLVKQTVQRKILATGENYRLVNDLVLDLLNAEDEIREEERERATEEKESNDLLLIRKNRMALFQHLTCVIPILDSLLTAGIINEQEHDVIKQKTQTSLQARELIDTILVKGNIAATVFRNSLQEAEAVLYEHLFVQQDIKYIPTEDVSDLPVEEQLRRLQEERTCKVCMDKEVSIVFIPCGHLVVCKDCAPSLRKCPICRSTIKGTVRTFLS
Compound,IC50 [1] [nM],IC50 [2] [nM],IC50 [3] [nM],Activity (SK-MEL-28 [5]),ΔTm (Homo sapiens) [°C],Activity (SK-MEL-28 [7]),further results
CN[C@@H](C)C(=O)N[C@@H](CNC(=O)c1cc(S(=O)(=O)F)ccc1OC)C(=O)N1CCCC[C@H]1C(=O)N[C@@H](Cc1ccccc1)C(N)=O,> 2500,> 2000,–,–,–,–,–
CN[C@@H](C)C(=O)N[C@H](C(=O)N1CCC[C@H]1c1nc(C(=O)c2ccc(F)cc2)cs1)C1CCCCC1 [LCL-161],–,–,9,Tde,14.5,Dde,IC50 [4]: 15 nM; ΔTm [6]: 12.6 °C
CN[C@@H](C)C(=O)N[C@@H](CNC(=O)c1cccc(S(=O)(=O)F)c1)C(=O)N1CCC[C@H]1C(=O)NC1Cc2ccccc2C1,> 2500,> 1500,> 1000,–,–,–,IC50 [8]: > 1000 nM
CN[C@@H](C)C(=O)N[C@@H](CNC(=O)c1cc(S(=O)(=O)F)ccc1OC)C(=O)N1CCC[C@H]1C(=O)N[C@@H]1CCc2ccccc21,–,–,–,Tde,6.2,Dde,–
CN[C@@H](C)C(=O)N[C@@H](CNC(=O)c1cc(S(=O)(=O)O)ccc1OC)C(=O)N1CCC[C@H]1C(=O)N[C@@H]1CCc2ccccc21,–,–,–,–,4.7,–,–
CN[C@@H](C)C(=O)N[C@@H](CNC(=O)c1cc(S(=O)(=O)F)ccc1OC)C(=O)N1CCC[C@H]1C(=O)N[C@@H]1CCc2c(F)cccc21,> 1000,–,–,–,–,–,–
